Measurements from article PMC9589286, “Ruthenium polypyridine complexes with triphenylamine groups as antibacterial agents against Staphylococcus aureus with membrane-disruptive mechanism” (Frontiers in Chemistry, 2022).

Experiments:
[1] = test system: Staphylococcus aureus hemolysin; assay: Toxin (hemolysin) secretion, rabbit blood cell hemolysis by culture supernatant; assay type: cell-based
Protocol: Firstly, S. aureus was cultured overnight and diluted 1000 times with fresh TSB, then a mixture of Ru-3 of 1 μg ml^−1 or 2 μg ml^−1 and Staphylococcus aureus solution was cultured in a shaking Table at 37°C for 18 h. After culturing, centrifuging (5000 rpm, 2 min) Staphylococcus aureus solution. And rabbit blood cells were prepared with PBS buffer (washing rabbit blood three times). Blood cells were collected by centrifugation (2000 rpm, 2 min). Secondly, a mixture containing 1 ml PBS buffer, 150 μL supernatant and 25 μL blood cells was cultured at 37°C for 30 min. Then cultured supernatant was obtained by centrifugation (2000 rpm, room temperature, 2 min). Finally, the optical density of the supernatant was measured at 540 nm.

[2] = test system: BALB/c mice; assay: Acute skin irritation test, H&E; assay type: in vivo; settings: 0.05 and 0.1 mg ml^−1, once a day for 3 days, topical
Protocol: Female BALB/c mice were randomly divided into three groups, control group, Ru-3 (0.05 mg ml^−1) group and Ru-3 (0.1 mg ml^−1). The day before the experiment, the hair on the back of female mice was removed. The compound and distilled water control were gently attached to the shaving site (about 2 cm^2) once a day for 3 days. On the fourth day, the mice were killed by cervical dislocation. The skin tissue at the site of infections were taken out and fixed in 4% paraformaldehyde at 4°C for 1 day, then embedded in paraffin. Serial sections were prepared for H&E analysis.

[3] = test system: Galleria mellonella; assay: Toxicity in insect model Galleria mellonella; assay type: in vivo; settings: 64 mg kg^−1, larvae, 120 h
Protocol: Based on the excellent antibacterial effect of Ru-3 in vitro, its biosafety was further evaluated. Firstly, the hemolytic activity of ruthenium complexes on rabbit red blood cells was measured to study their toxicity. […] In view of its good compatibility with mammalian red blood cells, the toxicity of Ru-3 to eukaryotes was also studied. Herein, Ru-3 was tested with Gallery melonella larvae. […] When the concentration of Ru-3 was 64 mg kg^−1, the survival rate was still 75%.
FIGURE 15 Test results of Ru compounds toxicity (A) % hemolysis at 256 μg ml^−1 of Ru compounds. (B) Kaplan-Meier survival curves. […] The larvae were incubated at 37.5°C and live/dead scores were conducted at 120 h (C) H&E staining images of the infected tissues with different treatments.

[4] = test system: Staphylococcus aureus; assay: In vivo antibacterial activity, mouse skin infection model; design: species or system mice; settings: cream with 50 μg ml^−1, 4 times a day, after 4 days
Protocol: S. aureus was cultured in TSB medium to exponential phase. Bacterial precipitates were collected and washed with PBS three times by centrifugation, which was diluted to OD600 = 1 (1.02 × 10^8 CFU/ml) with sterile normal saline. The day before the infection, the hair on the back of the mice was shaved off. Then depilatory cream (Veet®) was used to remove the remaining hair. Subsequently, 100 μL S. aureus was injected in subcutaneous and the abscess formed after 12 h later. All mice infected with S. aureus were divided into two groups (n = 5 in each group), including control group and treatment group, Ru-3 (0.05 mg ml^−1), which was fully mixed in sterile cream. Afterwards, mouse abscesses were treated with creams containing Ru-3 4 times a day. After 10 days, the experiment was ended. The study was conducted in strict accordance with NIH guidelines for the care and use of laboratory animals (NIH Publication No. 85–23, revised in 1985), and was reviewed and approved by the institutional animal care and use Committee of Guangxi Normal University (Guilin, China).

[Ru(dmb)2PMA] (PF6)2 [Ru-3]
Toxin reduced by ([1]; 1 μg ml^−1): 38%
Toxin reduced by ([1]; 2 μg ml^−1): 63%
skin irritation, H&E pathological changes [2]: no obvious pathological abnormalities
survival rate [3]: 75%
degree of wound healing [4]: increased significantly
